Assay results: patent publication US7977352B2, “Triazolopyridine compounds useful for the treatment of degenerative and inflammatory diseases” (Galapagos NV, priority 2006, dated 2011)

biological target: T1, TAK1-TAB1 fusion protein (Homo sapiens, UniProt O43318); assay: In vitro TAK1 kinase assay; type: biochemical; conditions: casein substrate, [33P]-γ-ATP, 90 minutes at 30° C., semi-quantitative score, read-out: POTENCY TAK1 (MAP3K7)
T1 construct: purchased Upstate 14-600
T1 sequence (O43318 with tags, fused parts or gaps limits assumed): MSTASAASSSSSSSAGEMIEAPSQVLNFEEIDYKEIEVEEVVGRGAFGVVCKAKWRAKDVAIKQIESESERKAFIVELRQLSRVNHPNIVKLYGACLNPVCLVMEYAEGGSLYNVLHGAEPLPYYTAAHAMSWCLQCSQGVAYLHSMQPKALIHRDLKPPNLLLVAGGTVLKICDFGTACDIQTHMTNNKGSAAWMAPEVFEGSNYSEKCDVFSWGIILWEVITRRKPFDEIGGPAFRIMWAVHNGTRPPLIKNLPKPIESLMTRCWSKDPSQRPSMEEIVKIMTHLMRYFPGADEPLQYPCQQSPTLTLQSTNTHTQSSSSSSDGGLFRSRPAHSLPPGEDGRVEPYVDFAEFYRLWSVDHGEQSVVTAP
Procedure, shortened: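 Radiometric kinase assay with TAK1-TAB1 fusion protein (0.5 mU), casein substrate, ATP plus [^33P]-γ-ATP in MOPS pH 7.0/EDTA buffer, compounds in 3-fold dilutions. 90 min at 30 °C, stopped with phosphoric acid; casein-incorporated label captured on filter plates and counted by scintillation.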

| IC50 | Structure (SMILES) |
| --- | --- |
| 1 to 5 µM | Cc1[nH]ncc1-c1ccc(Nc2ccc(N3CCOCC3)cc2)c2ncnn12 [Example 8, [5-(5-Methyl-1H-pyrazol-4-yl)-[1,2,4]triazolo[1,5-a]pyridin-8-yl]-(4-morpholin-4-yl-phenyl)-amine] |
| 1 to 5 µM | CN1CCN(c2ccc(Nc3ccc(-c4ccc(C(N)=O)c(F)c4)n4ncnc34)cc2)CC1 [Example 42, 2-fluoro-4-(8-{[4-(4-methylpiperazin-1-yl)phenyl]amino}[1,2,4]triazolo[1,5-a]pyridin-5-yl)benzamide] |
| 1 to 5 µM | Cc1[nH]ncc1-c1ccc(Nc2ccc(N3CCOCC3)cc2)c2ncnn12 [Example 39, 5-(5-methyl-1H-pyrazol-4-yl)-N-(4-morpholin-4-ylphenyl)[1,2,4]triazolo[1,5-a]pyridin-8-amine] |
| < 0.5 µM | CN1CCN(c2ccc(Nc3ccc(-c4cn[nH]c4)n4ncnc34)cc2)CC1 [Example 36, N-[4-(4-methylpiperazin-1-yl)phenyl]-5-(1H-pyrazol-4-yl)[1,2,4]triazolo[1,5-a]pyridin-8-amine] |
| 1 to 5 µM | O=C(NCc1cccnc1)c1ccc(Nc2ccc(-c3cc[nH]c(=O)c3)n3ncnc23)cc1 [Example 41, 4-{[5-(2-oxo-1,2-dihydropyridin-4-yl)[1,2,4]triazolo[1,5-a]pyridin-8-yl]amino}-N-(pyridin-3-ylmethyl)benzamide] |
| 0.501 to 1 µM | O=C(NCc1cccnc1)c1ccc(Nc2ccc(-c3cn[nH]c3)n3ncnc23)cc1 [Example 37, 4-{[5-(1H-pyrazol-4-yl)[1,2,4]triazolo[1,5-a]pyridin-8-yl]amino}-N-(pyridin-3-ylmethyl)benzamide] |
| < 0.5 µM | CN1CCN(c2ccc(Nc3ccc(-c4cc[nH]c(=O)c4)n4ncnc34)cc2)CC1 [Example 40, 4-(8-{[4-(4-methylpiperazin-1-yl)phenyl]amino}[1,2,4]triazolo[1,5-a]pyridin-5-yl)pyridin-2(1H)-one] |

The remaining lines, values behind:

| Structure (SMILES) | IC50 |
| --- | --- |
| NC(=O)c1ccc(-c2ccc(Nc3ccc(N4CCOCC4)cc3)c3ncnn23)cc1 [Example 1, 4-[8-(4-Morpholin-4-yl-phenylamino)-[1,2,4]triazolo[1,5-a]pyridin-5-yl]-benzamide] | > 10 µM |
| CN1CCN(c2ccc(Nc3ccc(-c4cn[nH]c4)n4ncnc34)cc2)CC1 [Example 2, [4-(4-Methyl-piperazin-1-yl)-phenyl]-[5-(1H-pyrazol-4-yl)-[1,2,4]triazolo[1,5-a]pyridin-8-yl]-amine] | 0.501 to 1 µM |
| c1nc2c(Nc3ccc(N4CCOCC4)cc3)ccc(-c3cn[nH]c3)n2n1 [Example 7, (4-Morpholin-4-yl-phenyl)-[5-(1H-pyrazol-4-yl)-[1,2,4]triazolo[1,5-a]pyridin-8-yl]-amine] | 0.501 to 1 µM |
| CN1CCN(c2ccc(Nc3ccc(-c4cc[nH]c(=O)c4)n4ncnc34)cc2)CC1 [Example 4, 4-{8-[4-(4-Methyl-piperazin-1-yl)-phenylamino]-[1,2,4]triazolo[1,5-a]pyridin-5-yl}-1H-pyridin-2-one] | 0.501 to 1 µM |
| O=C(NCc1cccnc1)c1ccc(Nc2ccc(-c3cc[nH]c(=O)c3)n3ncnc23)cc1 [Example 5, 4-[5-(2-oxo-1,2-dihydro-pyridin-4-yl)-[1,2,4]triazolo[1,5-a]pyridin-8-ylamino]-N-pyridin-3-ylmethyl-benzamide] | 0.501 to 1 µM |
| O=C(NCc1cccnc1)c1ccc(Nc2ccc(-c3cn[nH]c3)n3ncnc23)cc1 [Example 3, 4-[5-(1H-Pyrazol-4-yl)-[1,2,4]triazolo[1,5-a]pyridin-8-ylamino]-N-pyridin-3-ylmethyl-benzamide] | 0.501 to 1 µM |
